Legend:
[1] = Beagle test of sustained release capsules (oral) versus intravenous administration; type: in vivo; details: beagles, orally administrated sustained release capsule
Method: The blood samples were collected separately at 0.25, 0.5, 1, 2, 4, 6, 8, 12, 16 and 24 hours after drug administration.

human liver cells S9 = experiment: Metabolism in human liver cells S9 to form the active component compound III; type: in vitro ADME; details: conversion to compound III, human liver S9, 1 mM NADPH, 37° C.
From the text: Then the mixture was quenched with concentrated perchloric acid. After the precipitated proteins was removed by centrifuge, the supernatant was adjusted with concentrated potassium phosphate until pH was 3, and centrifuged again. The supernatant was directly injected into HPLC and analyzed.

SMILES | conversion into compound III in vivo [1] | Metabolic rate (%) of compounds in liver cells within 2 hours (human liver cells S9) [%]
COc1ccc(C(=O)Oc2ccc(C(CN(C)C)C3(O)CCCCC3)cc2)cc1.O=C(O)CCC(=O)O (centres unmarked) [4-[2-dimethylamino-1-(1-hydroxycyclohexyl)-ethyl]phenyl 4-methoxybenzoate succinate] | quickly converted | 
CN(C)CC(c1ccc(OC(=O)c2ccccc2)cc1)C1(O)CCCCC1 (centres unmarked) [Compound 2 of Example 1, 4-[2-dimethylamino-1-(1-hydroxycyclohexyl)-ethyl]phenyl Benzoate] |  | 96
CN(C)CC(c1ccc(OC(=O)c2ccc(F)cc2)cc1)C1(O)CCCCC1 (centres unmarked) [Compound 4 of Example 1, 4-[2-dimethylamino-1-(1-hydroxycyclohexyl)-ethyl]phenyl 4-fluorobenzoate] |  | 88
CN(C)CC(c1ccc(OC(=O)c2ccccc2)cc1)C1(O)CCCCC1.Cl (centres unmarked) [4-[2-dimethylamino-1-(1-hydroxycyclohexyl)-ethyl]phenyl benzoate hydrochloride] | quickly converted | 
COc1ccc(C(=O)Oc2ccc(C(CN(C)C)C3(O)CCCCC3)cc2)cc1 (centres unmarked) [Compound 3 of Example 1, 4-[2-dimethylamino-1-(1-hydroxycyclohexyl)-ethyl]phenyl 4-methoxybenzoate] |  | 92
